Some test systems named below: A549 NSCLC; CAKI-1 renal; EKVX NSCLC; MOLT-4 leukemia; OVCAR-3 ovarian; SF-539 CNS; SNB-19 CNS; SW-620 colon; U251 CNS; UACC-62 melanoma.
Assay in all cases: NCI anticancer screen, dose series, 48 h

Our source for the TGI and GI50 values is PubChem BioAssay (NCI).

Values joined by “and” are separate entries in the source; they are usually repeats but may differ in a detail not shown here. Equal entries are not always repeated.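 Five concentrations, 48 hours, 96-well plates. The concentration for 50% growth inhibition is given as GI50. TGI: total growth inhibition.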

Regarding `CC(C)=CC(=O)CC(=O)C(=O)Nc1ccc(C)c(C)c1`, the TGI in the assay with A549 NSCLC, in the assay with CAKI-1 renal, with EKVX NSCLC, in the assay on MOLT-4 leukemia, in the assay with OVCAR-3 ovarian and in the assay on SF-539 CNS was over 100 µM throughout. Moreover, the TGI in the assay on SNB-19 CNS, in the assay with SW-620 colon, with U251 CNS and with UACC-62 melanoma was over 100 µM throughout.
Regarding `C[C@H]1[C@H](OC(=O)CCC(=O)O)O[C@@H]2O[C@]3(C)CC[C@H]4[C@H](C)CC[C@@H]1[C@@]24OO3`, the GI50 with A549 NSCLC was 0.959 µM; with CAKI-1 renal, 0.532 µM; with EKVX NSCLC it was 0.443 µM; with MOLT-4 leukemia, 0.308 µM; in the assay on OVCAR-3 ovarian, 0.415 µM; in the assay with SF-539 CNS it was 0.667 µM. Besides, the GI50 is 1.62 µM in the assay with SNB-19 CNS, 0.282 µM with SW-620 colon, 0.503 µM in the assay on U251 CNS and 0.474 µM with UACC-62 melanoma. In addition, the TGI in the assay on A549 NSCLC was determined as 18.3 µM; with CAKI-1 renal, 36 µM; in the assay with EKVX NSCLC, 18.3 µM; in the assay with MOLT-4 leukemia, 16.5 µM; in the assay on OVCAR-3 ovarian, 15.2 µM; in the assay on SF-539 CNS, 14.5 µM. Besides, the TGI is over 100 µM in the assay with SNB-19 CNS, 17.8 µM in the assay on SW-620 colon, 18.5 µM with U251 CNS and 27.4 µM with UACC-62 melanoma.
For the compound `CCOC(=O)CCC(NC(=O)c1ccc(N=Cc2nc3cc(C(F)(F)F)ccc3nc2-c2ccccc2)cc1)C(=O)OCC` (stereo not given), the GI50 in the assay on A549 NSCLC was over 100 µM; in the assay with CAKI-1 renal it was over 100 µM; with EKVX NSCLC, over 100 µM; with MOLT-4 leukemia, over 100 µM; in the assay on OVCAR-3 ovarian, over 100 µM; with SF-539 CNS, 6.03 µM. Besides, the GI50 in the assay with SNB-19 CNS was 8.51 µM; in the assay with SW-620 colon, over 100 µM; with U251 CNS, 9.75 µM; with UACC-62 melanoma, 61.6 µM. Moreover, the TGI in the assay on A549 NSCLC is 50 µM and > 100 µM; in the assay on CAKI-1 renal it was 50 µM and > 100 µM; in the assay with EKVX NSCLC it was 50 µM and > 100 µM; in the assay with MOLT-4 leukemia it was over 100 µM; with OVCAR-3 ovarian, 50 µM and > 100 µM; in the assay on SF-539 CNS it was 45.7 µM and 28.4 µM. Further, the TGI is 29.2 µM and 31.9 µM in the assay with SNB-19 CNS; over 100 µM in the assay on SW-620 colon; 19.4 µM and 57.1 µM with U251 CNS; 40.7 µM and > 100 µM with UACC-62 melanoma.
Regarding `CNC(=O)OCc1nc(SC(C)C)n(C)c1COC(=O)NC`, the TGI with A549 NSCLC is over 100 µM; with CAKI-1 renal, over 100 µM; in the assay on EKVX NSCLC, over 100 µM; with MOLT-4 leukemia it was over 86.6 µM; in the assay on OVCAR-3 ovarian, over 100 µM; with SF-539 CNS, over 100 µM. For the same compound, the TGI in the assay with SNB-19 CNS, in the assay on SW-620 colon, with U251 CNS and in the assay on UACC-62 melanoma was over 100 µM in each case.
On to `O=C1CC(=O)N(C2CCCCC2)C(=O)N1c1ccccc1S(=O)(=O)Oc1ccccc1`, for which the TGI in the assay on A549 NSCLC is over 100 µM; with CAKI-1 renal it was over 100 µM; in the assay on EKVX NSCLC, over 100 µM; in the assay on MOLT-4 leukemia, 37.8 µM; in the assay on OVCAR-3 ovarian it was over 100 µM; with SF-539 CNS it was over 100 µM. Moreover, the TGI in the assay with SNB-19 CNS, in the assay on SW-620 colon, in the assay with U251 CNS and with UACC-62 melanoma was over 100 µM in each case.
In the case of `COc1cc(CCc2cc(NC(=O)c3ccc(N4C[C@@H](C)N[C@@H](C)C4)cc3)n[nH]2)cc(OC)c1`, the GI50 in the assay on A549 NSCLC was > 10 µM and 3.9 µM; in the assay with CAKI-1 renal, > 10 µM and 5.76 µM; with EKVX NSCLC, over 10 µM; in the assay on MOLT-4 leukemia, 4.38 µM and 3.69 µM; in the assay with OVCAR-3 ovarian, > 10 µM and 15.7 µM; in the assay with SF-539 CNS, 6.6 µM and 4.08 µM. In addition, the GI50 in the assay on SNB-19 CNS is > 10 µM and 14.9 µM; in the assay with SW-620 colon it was 6.49 µM and 3.5 µM; in the assay on U251 CNS, > 10 µM and 3.86 µM; with UACC-62 melanoma it was > 10 µM and 6.82 µM. The TGI was > 10 µM and 15.3 µM in the assay on A549 NSCLC; > 10 µM and 21.8 µM in the assay with CAKI-1 renal; over 10 µM in the assay on EKVX NSCLC; > 10 µM and 13.2 µM in the assay on MOLT-4 leukemia; > 10 µM and 30 µM with OVCAR-3 ovarian; > 10 µM and 15.1 µM in the assay with SF-539 CNS. Besides, the TGI was > 10 µM and 30.8 µM with SNB-19 CNS; > 10 µM and 15.6 µM in the assay with SW-620 colon; > 10 µM and 18 µM in the assay with U251 CNS; > 10 µM and 21.2 µM in the assay with UACC-62 melanoma.
With `CCOC(=O)C1C=C2O[C@@H]3OC4(CCCCC4)O[C@@H]3C2[C@H]2C(=O)C=CC(=O)[C@@]12C(=O)OC` (stereo not given in full), the TGI with A549 NSCLC was found to be 33.1 µM; in the assay on CAKI-1 renal, 31.3 µM; in the assay with EKVX NSCLC, 36.1 µM; in the assay with MOLT-4 leukemia, 8.71 µM; in the assay on OVCAR-3 ovarian, 22.1 µM; in the assay on SF-539 CNS, 6.16 µM. Also, the TGI with SNB-19 CNS was 22.9 µM; with SW-620 colon, 28.6 µM; in the assay with U251 CNS, 21.5 µM; with UACC-62 melanoma, 30.9 µM.
Consider `CCCCCCCCCCCCCCCCCCNC(=O)[C@H]1CSC(c2ccc(OC)c(F)c2)N1` (stereo not given in full), for which the GI50 is 9.87 µM in the assay with A549 NSCLC; 3.98 µM with CAKI-1 renal; 3.93 µM in the assay with EKVX NSCLC; 1.48 µM in the assay on MOLT-4 leukemia; 7.84 µM with OVCAR-3 ovarian; 4.67 µM in the assay with SF-539 CNS. The GI50 was 21.2 µM in the assay with SNB-19 CNS, 1.5 µM in the assay on SW-620 colon, 4.48 µM in the assay on U251 CNS and 1.72 µM in the assay with UACC-62 melanoma. In addition, the TGI with A549 NSCLC was 38.1 µM; with CAKI-1 renal it was 16.9 µM; in the assay with EKVX NSCLC, 17.2 µM; with MOLT-4 leukemia, 9.18 µM; with OVCAR-3 ovarian, over 50.2 µM; with SF-539 CNS it was over 37.6 µM. The TGI was over 52.1 µM in the assay with SNB-19 CNS, 5.71 µM in the assay on SW-620 colon, 22.9 µM with U251 CNS and 3.82 µM in the assay with UACC-62 melanoma.
For `CCCCN(CCCC)C(=O)C(=O)CC(=O)c1ccc(Br)cc1`, the TGI in the assay with A549 NSCLC, with CAKI-1 renal, in the assay with EKVX NSCLC, with MOLT-4 leukemia, in the assay with OVCAR-3 ovarian and with SF-539 CNS was over 100 µM throughout. The TGI with SNB-19 CNS, in the assay with SW-620 colon, in the assay with U251 CNS and in the assay on UACC-62 melanoma was over 100 µM each time.
